Measurements taken from patent US11666597B2, “Water-activated mucoadhesive compositions to reduce intestinal absorption of nutrients” (The Brigham and Women's Hospital, Inc., priority 2015, dated 2023).

How the values were obtained:
[1] = Aluminum release in simulated gastrointestinal fluids; type: physicochemical
[2] = Thickness of paste layer on mucus-coated cellulose nitrate membrane
Experimental: Five hundred milligrams of AF-LuCI (excess) was added onto mucus-coated cellulose nitrate membrane (disk shape with 2 cm diameter) and DDW (pH 5.5), SGF (pH 1.0), or SIF (pH 6.5) was added immediately. After AF-LuCI becomes a paste and flow to form a layer (3-5 minutes), supernatant was removed and the paste-coated membrane was quickly frozen in −80° C. freezer to measure the thickness. The thickness of the mucus-coated cellulose nitrate membrane without AF-LuCI was separately measured as a baseline.

[3] = Glucose barrier test on mucin-coated membrane in Franz cell; set-up: species or system porcine
Experimental: To examine the barrier properties of pastes formed from the new hydratable compositions in vitro, a mucin-coated membrane was prepared to mimic the mucus surface of the intestine. Specifically, a cellulose nitrate membrane (pore size: 0.2 μm, Whatman, Germany) was incubated in a 3% w/v porcine stomach mucin (SigmaAldrich, USA) solution in PBS (pH 7.4) and gently shaken for 2 hours at room temperature. The membrane was washed with distilled deionized water (DDW, pH 5.5) to remove the excess mucin solution. The mucin-coated membranes were used within 1 hour following preparation.
To measure the thickness of the mucin layer, the mucin-coated membrane was lyophilized and imaged using scanning electron microscope (SEM) and the thickness of randomly selected positions was examined (average mucin layer thickness: ˜100 μm). To test the nutrient barrier properties, 10 mg of sucralfate or AF-LuCI was added evenly to a mucin-coated membrane and vertically tilted for 1 minute. […]
The permeation tests were performed in triplicate for each material. The glucose concentration was measured using high performance liquid chromatography (HPLC, Agilent, USA) with an analytical C18 column (Zorbax Eclipse XDB-C18, Agilent). […]

[4] = Degree of polymerization of PAC by titration; type: physicochemical; details: native sucralfate
Experimental: Experiments were performed to determine the degree of polymerization in AF-LuCI by using the titration-based methods as described in Nail, S. L., White, J. L. & Hem, S. L. Structure of Aluminum Hydroxide Gel I: Initial Precipitate. Journal of Pharmaceutical Sciences 65, 1188-1191 (1976); and Hem, J. D. & Roberson, C. E. Form and stability of aluminum hydroxide complexes in dilute solution. Geol Surv Water-Supply Pap(US)(United States) (1967). The degree of polymerization of PACs in AF-LuCI and sucralfate molecule was determined using titration method based on the reversible protonation of hydroxo linkages in the PAC backbone. Approximately 10 mg of AF-LuCI were treated with 0.1N, 0.2N, 0.3N, 0.4N and 0.5N HCl solutions in different tubes. The samples were vortexed for 5 seconds followed by 1-hour incubation. The supernatant of each sample was then collected and the pH was measured using a pH meter. The same procedures were performed with sucralfate. The pH of the HCl solutions was measured as the control group and the difference between the control and the treated groups was calculated. The difference in pH corresponds to the proton consumption and the amount of hydroxo linkages that were then used to calculate the number of aluminum per molecule.

[5] = Dissolution in NaCl solutions; type: physicochemical; details: saturated NaCl solutions (~0.35 g/ml in water)
Source text: […] This is a characteristic behavior of liquid complex coacervate system (See Wang, Q. & Schlenoff, J. B. The Polyelectrolyte Complex/Coacervate Continuum. Macromolecules 47, 3108-3116 (2014); de Kruif, C. G., Weinbreck, F. & de Vries, R. Complex coacervation of proteins and anionic polysaccharides. Current Opinion in Colloid & Interface Science 9, 340-349 (2004); Veis, A. & Aranyi, C. PHASE SEPARATION IN POLYELECTROLYTE SYSTEMS. I. COMPLEX COACERVATES OF GELATIN. J. Phys. Chem. 64, 1203-1210 (1960)).

Sprague-Dawley (SD) rats = experiment: microCT imaging of coating in the GI tract after gavage; type: in vivo; details: gavage into the stomach, AF-LuCI 450 mg/kg rat, imaged after 1 hr
Experimental: Sprague-Dawley (SD) rats were gavaged into the stomach with hydrated AF-LuCI pastes and imaged using micro-computed tomography (microCT). AF-LuCI pastes could be visualized on gastro-intestinal tissues without additional contrast agents owing to the presence of aluminum. For these experiments, rats were fasted overnight and gavaged directly into the stomach with 450 mg/kg rat of AF-LuCI paste hydrated in 0.9 w/v % normal saline solution. After 1 hr and 5 hr, the rats were anesthetized using isoflurane and imaged using microCT. […] FIG. 18A is a coronal plane view of SD rats gavaged with AF-LuCI 1 hr before the imaging. AF-LuCI formed a layer in stomach, duodenum and proximal intestine. FIGS. 18B and 18C are 3-dimensional views of SD rats gavaged with AF-LuCI (FIG. 18B) 1 hr and (FIG. 18C) 5 hr before the microCT imaging. AF-LuCI is attached on stomach, duodenum and proximal intestine at least for 5 hrs after gavage while sucralfate only formed sparsely scattered aggregates on the healthy mucosa

[6] = test system: normal Sprague-Dawley (SD) rats; experiment: OGTT with sucralfate; type: in vivo, rat
Source text: In contrast, sucralfate selectively binds to ulcerated mucosa where the bicarbonate secretion is malfunctioned (i.e. acidic), while on bicarbonate-neutralized healthy mucosa sucralfate forms loosely bound discrete solid aggregates attached on the surface rather than forming a continuous layer. […] The neutralized pH on mucus surfaces also compromised the barrier function of sucralfate due to the change of rheological properties.

[7] = native sucralfate, USP specification; cited from earlier work

sucralfate
release of original aluminum content ([1]; exposed to an acidic fluid, e.g. gastric fluid, for AF-LuCI relative to the aluminum content of commercial sucralfate): about 15.0 w/w % | release of aluminum ([1]; simulated gastric fluid (SGF, pH 1.0)): 15 w/w % of total aluminum content | thickness of layer ([2]; SGF (pH 1.0)): ~250 μm | layer formation ([2]; distilled water or SIF): did not form any layer | glucose penetration blocked ([3]; SGF, 10 mg on membrane, 120 g/L glucose, 5 minutes): ~60% | glucose blocked ([3]; applied on mucus-coated membrane in pH 1.0, then solution of pH 4.0 added): 16.5% | number of aluminum ions per molecule (degree of polymerization of PAC) [4]: 56.1±3.0 aluminum per molecule | fraction dissolved [5]: Less than 5 w/w % | layer formation in the GI tract (microCT) (Sprague-Dawley (SD) rats): did not form a layer | area under curve (AUC) in OGTT versus saline treated group [6]: no significant difference | USP regulation on the aluminum content [7]: 15.5-18.5 w/w % of the total weight
